Measured values published in ChEMBL document CHEMBL1126982, “Design and synthesis of a DNA-cleaving metallopeptide” (Bioorg Med Chem Lett, 1993).

How the values were obtained:
Assay type in all cases: nucleic-acid assay
Nucleic Acid [1] = experiment: Cu(II) complex for cleavage of phi X174 RF plasmid DNA from intact form I to nicked form II at 250 uM compound and 100 uM Cu(II)
Nucleic Acid [2] = experiment: Cu(II) complex for cleavage of phi X174 RF plasmid DNA from intact form I to nicked form II at 250 uM compound and 200 uM Cu(II)
Nucleic Acid [3] = experiment: Cu(II) complex for cleavage of phi X174 RF plasmid DNA from intact form I to nicked form II at 350 uM of Cu(II)

## H-GGHGYSPTSPSYGK-NH2
Nucleic Acid [1]
  Activity: 50%
Nucleic Acid [2]
  Activity: 70%
Nucleic Acid [3]
  Activity: > 90%
